biological target: [35S]-TBPS binding, rat brain cortical membranes; assay: Steroid inhibition of [35S]-TBPS binding; details: 3 nM [35S]-TBPS, in the presence of 5 mM GABA
How it was run: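 Rat cortical P2 membranes incubated 90 min at room temperature with 3 nM [35S]-TBPS, […] and test compound (0.5% DMSO final) in NaCl/Na–K phosphate pH 7.4; nonspecific binding with […]. Filter-bound radioactivity counted; IC50 and Imax from nonlinear fits, mean ± SEM.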

First: CCOC[C@@]1(O)CC[C@H]2[C@H](CC[C@@H]3[C@@H]2CC[C@]2(C)[C@@H]([C@H](Nc4ccc(C#N)cc4C)C(F)(F)F)CC[C@@H]32)C1 [Example 487, 4-(((S)-1-((3R,5R,8R,9R,10S,13S,14S,17S)-3-(ethoxymethyl)-3-hydroxy-13-methylhexadecahydro-1H-cyclopenta[a]phenanthren-17-yl)-2,2,2-trifluoroethyl)amino)-3-methylbenzonitrile]
Second: CCOC[C@@]1(O)CC[C@H]2[C@H](CC[C@@H]3[C@@H]2CC[C@]2(C)[C@@H]([C@@H](Nc4ccc(C#N)cc4C)C(F)(F)F)CC[C@@H]32)C1 [Example 488, 4-(((R)-1-((3R,5R,8R,9R,10S,13S,14S,17S)-3-(ethoxymethyl)-3-hydroxy-13-methylhexadecahydro-1H-cyclopenta[a]phenanthren-17-yl)-2,2,2-trifluoroethyl)amino)-3-methylbenzonitrile]
The IC50 of the first is lower: 0.1 to 1 µM for the first, 1 to 10 µM for the second.

First: Cc1cc(C#N)ccc1N[C@@H]([C@H]1CC[C@H]2[C@@H]3CC[C@@H]4C[C@](C)(O)CC[C@@H]4[C@H]3CC[C@]12C)C(F)(F)F [Example 489, 3-methyl-4-(((S)-2,2,2-trifluoro-1-((3R,5R,8R,9R,10S,13S,14S,17S)-3-hydroxy-3,13-dimethylhexadecahydro-1H-cyclopenta[a]phenanthren-17-yl)ethyl)amino)benzonitrile]
Second: Cc1cc(C#N)ccc1N[C@H]([C@H]1CC[C@H]2[C@@H]3CC[C@@H]4C[C@](C)(O)CC[C@@H]4[C@H]3CC[C@]12C)C(F)(F)F [Example 490, 3-methyl-4-(((R)-2,2,2-trifluoro-1-((3R,5R,8R,9R,10S,13S,14S,17S)-3-hydroxy-3,13-dimethylhexadecahydro-1H-cyclopenta[a]phenanthren-17-yl)ethyl)amino)benzonitrile]
The IC50 of the first is higher: 1 to 10 µM for the first, 0.1 to 1 µM for the second. The second is the more potent here.

Compared with `CC[C@@]1(O)CC[C@H]2[C@H](CC[C@@H]3[C@@H]2CC[C@]2(C)[C@@H]([C@@H](C)Nc4ccc(C#N)nc4)CC[C@@H]32)C1` [Example 491, 5-(((R)-1-((3R,5R,8R,9R,10S,13S,14S,17S)-3-ethyl-3-hydroxy-13-methylhexadecahydro-1H-cyclopenta[a]phenanthren-17-yl)ethyl)amino)picolinonitrile], `CCOC[C@@]1(O)CC[C@H]2[C@H](CC[C@@H]3[C@@H]2CC[C@]2(C)[C@@H]([C@H](CC)Nc4ccc(C#N)nc4)CC[C@@H]32)C1` [Example 493, 5-(((S)-1-((3R,5R,8R,9R,10S,13S,14S,17S)-3-(ethoxymethyl)-3-hydroxy-13-methylhexadecahydro-1H-cyclopenta[a]phenanthren-17-yl)propyl)amino)picolinonitrile] is higher in IC50: 0.1 to 1 µM for the first, 1 to 10 µM for the second. The first is the more potent here.

Compared with `CCOC[C@@]1(O)CC[C@H]2[C@H](CC[C@@H]3[C@@H]2CC[C@]2(C)[C@@H]([C@@H](CC)Nc4cccc(C#N)c4)CC[C@@H]32)C1` [Example 492, 3-(((R)-1-((3R,5R,8R,9R,10S,13S,14S,17S)-3-(ethoxymethyl)-3-hydroxy-13-methylhexadecahydro-1H-cyclopenta[a]phenanthren-17-yl)propyl)amino)benzonitrile], `CC[C@H](Nc1cccc(C#N)c1)[C@H]1CC[C@H]2[C@@H]3CC[C@@H]4C[C@@](O)(COC)CC[C@@H]4[C@H]3CC[C@]12C` [Example 496, 3-(((S)-1-((3R,5R,8R,9R,10S,13S,14S,17S)-3-hydroxy-3-(methoxymethyl)-13-methylhexadecahydro-1H-cyclopenta[a]phenanthren-17-yl)propyl)amino)benzonitrile] is lower in IC50: 1 to 10 µM for the first, 0.1 to 1 µM for the second. The second is the more potent here.

`CCOC[C@@]1(O)CC[C@@]2(C)[C@H](CC[C@@H]3[C@@H]2CC[C@]2(C)[C@@H]([C@H](CC)Nc4ccc(C#N)nc4)CC[C@@H]32)C1` [Example 494, 5-(((S)-1-((3R,5R,8R,9S,10S,13S,14S,17S)-3-(ethoxymethyl)-3-hydroxy-10,13-dimethylhexadecahydro-1H-cyclopenta[a]phenanthren-17-yl)propyl)amino)picolinonitrile] and `CCOC[C@@]1(O)CC[C@@]2(C)[C@H](CC[C@@H]3[C@@H]2CC[C@]2(C)[C@@H]([C@@H](CC)Nc4ccc(C#N)nc4)CC[C@@H]32)C1` [Example 495, 5-(((R)-1-((3R,5R,8R,9S,10S,13S,14S,17S)-3-(ethoxymethyl)-3-hydroxy-10,13-dimethylhexadecahydro-1H-cyclopenta[a]phenanthren-17-yl)propyl)amino)picolinonitrile] fall in the same range of IC50: 0.1 to 1 µM for the first, 0.1 to 1 µM for the second.

`CC[C@@H](Nc1cccc(C#N)c1)[C@H]1CC[C@H]2[C@@H]3CC[C@@H]4C[C@@](O)(COC)CC[C@@H]4[C@H]3CC[C@]12C` [Example 497, 3-(((R)-1-((3R,5R,8R,9R,10S,13S,14S,17S)-3-hydroxy-3-(methoxymethyl)-13-methylhexadecahydro-1H-cyclopenta[a]phenanthren-17-yl)propyl)amino)benzonitrile] and `CCOC[C@@]1(O)CC[C@H]2[C@H](CC[C@@H]3[C@@H]2CC[C@]2(C)[C@@H]([C@@H](CC)Nc4ccc(C#N)nc4)CC[C@@H]32)C1` [Example 503] fall in the same range of IC50: 0.1 to 1 µM for the first, 0.1 to 1 µM for the second.

Compared with `CCOC[C@@]1(O)CC[C@H]2[C@H](CC[C@@H]3[C@@H]2CC[C@]2(C)[C@@H]([C@@H](CC)Cn4ccc(C#N)n4)CC[C@@H]32)C1` [Example 498, 1-((R)-2-((3R,5R,8R,9R,10S,13S,14S,17R)-3-(ethoxymethyl)-3-hydroxy-13-methylhexadecahydro-1H-cyclopenta[a]phenanthren-17-yl)butyl)-1H-pyrazole-3-carbonitrile], `CCOC[C@@]1(O)CC[C@H]2[C@H](CC[C@@H]3[C@@H]2CC[C@]2(C)[C@@H]([C@@H](CC)Cn4nccc4C#N)CC[C@@H]32)C1` [Example 500, 1-((R)-2-((3R,5R,8R,9R,10S,13S,14S,17R)-3-(ethoxymethyl)-3-hydroxy-13-methylhexadecahydro-1H-cyclopenta[a]phenanthren-17-yl)butyl)-1H-pyrazole-5-carbonitrile] is higher in IC50: 0.1 to 1 µM for the first, 1 to 10 µM for the second. The first is the more potent here.

`CCOC[C@@]1(O)CC[C@H]2[C@H](CC[C@@H]3[C@@H]2CC[C@]2(C)[C@@H]([C@H](CC)Cn4nccc4C#N)CC[C@@H]32)C1` [Example 501, 1-((S)-2-((3R,5R,8R,9R,10S,13S,14S,17R)-3-(ethoxymethyl)-3-hydroxy-13-methylhexadecahydro-1H-cyclopenta[a]phenanthren-17-yl)butyl)-1H-pyrazole-5-carbonitrile] and `C[C@@]1(O)CC[C@H]2[C@H](CC[C@@H]3[C@@H]2CC[C@]2(C)[C@@H]([C@H](Nc4ccccc4)C(F)(F)F)CC[C@@H]32)C1` [Example 505] fall in the same range of IC50: 0.1 to 1 µM for the first, 0.1 to 1 µM for the second.

`CCOC[C@@]1(O)CC[C@@]2(C)[C@H](CC[C@H]3C4CC[C@H]([C@@H](C)Nc5ccc(-n6ccc(C#N)n6)cn5)[C@@]4(C)CC[C@@H]32)C1` (stereo partly shown) [Example 502] and `CCOC[C@@]1(O)CC[C@@]2(C)[C@H](CC[C@H]3C4CC[C@H]([C@@H](C)Nc5ccc(-n6cc(C#N)cn6)cn5)[C@@]4(C)CC[C@@H]32)C1` (stereo partly shown) [Example 504] fall in the same range of IC50: 0.1 to 1 µM for the first, 0.1 to 1 µM for the second.

biological target: human GABAA receptors composed of the α4β3δ subunits (Homo sapiens (Human), UniProt O14764+P28472+P48169); assay: α4β3δ SyncroPatch automated patch clamp assay; type: cell-based; details: HEK cells, potentiation of submaximal GABA current, clamped at −120 mV
Sequence (P48169 36-554 limits assumed): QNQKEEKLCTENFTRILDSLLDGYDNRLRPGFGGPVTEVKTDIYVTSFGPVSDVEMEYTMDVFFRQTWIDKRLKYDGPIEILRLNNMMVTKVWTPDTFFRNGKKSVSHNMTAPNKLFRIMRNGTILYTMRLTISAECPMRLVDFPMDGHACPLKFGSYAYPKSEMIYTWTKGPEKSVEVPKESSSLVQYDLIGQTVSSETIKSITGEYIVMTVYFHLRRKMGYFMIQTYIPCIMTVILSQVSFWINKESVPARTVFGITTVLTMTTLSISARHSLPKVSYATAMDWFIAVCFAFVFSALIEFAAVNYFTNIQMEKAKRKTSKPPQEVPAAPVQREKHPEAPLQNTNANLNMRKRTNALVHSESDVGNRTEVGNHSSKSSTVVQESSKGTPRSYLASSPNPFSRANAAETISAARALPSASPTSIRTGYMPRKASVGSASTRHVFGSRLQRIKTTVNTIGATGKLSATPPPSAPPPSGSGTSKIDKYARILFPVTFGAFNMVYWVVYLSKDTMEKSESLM
Sequence (P28472 26-473 limits assumed): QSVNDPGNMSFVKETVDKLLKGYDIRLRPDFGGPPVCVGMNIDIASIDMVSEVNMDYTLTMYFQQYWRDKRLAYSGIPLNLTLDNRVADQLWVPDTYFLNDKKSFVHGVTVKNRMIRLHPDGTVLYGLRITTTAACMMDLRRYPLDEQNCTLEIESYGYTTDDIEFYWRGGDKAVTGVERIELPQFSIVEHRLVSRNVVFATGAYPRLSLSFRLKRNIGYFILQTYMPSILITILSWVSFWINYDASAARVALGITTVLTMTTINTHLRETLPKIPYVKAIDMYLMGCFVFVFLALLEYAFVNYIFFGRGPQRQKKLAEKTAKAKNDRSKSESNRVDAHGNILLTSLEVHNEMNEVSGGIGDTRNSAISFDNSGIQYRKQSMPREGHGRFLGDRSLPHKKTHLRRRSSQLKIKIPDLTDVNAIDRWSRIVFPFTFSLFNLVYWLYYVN
Sequence (O14764 17-452 limits assumed): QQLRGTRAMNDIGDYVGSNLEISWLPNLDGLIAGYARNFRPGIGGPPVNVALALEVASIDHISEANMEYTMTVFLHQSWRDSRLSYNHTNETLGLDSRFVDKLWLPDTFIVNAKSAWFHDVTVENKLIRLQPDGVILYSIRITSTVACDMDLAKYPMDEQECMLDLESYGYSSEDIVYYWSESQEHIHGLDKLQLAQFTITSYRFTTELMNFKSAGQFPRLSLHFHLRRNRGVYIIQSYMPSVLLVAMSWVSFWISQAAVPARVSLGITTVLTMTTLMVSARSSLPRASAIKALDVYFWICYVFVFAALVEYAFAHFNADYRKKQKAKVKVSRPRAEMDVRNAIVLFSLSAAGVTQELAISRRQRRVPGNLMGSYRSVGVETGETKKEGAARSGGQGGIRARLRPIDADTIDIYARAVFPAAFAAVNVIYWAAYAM
Procedure: (§1) The SyncroPatch 384PE (Nanion, Germany) automated patch clamp platform was used to obtain recordings from human embryonic kidney cells stably expressing human GABAA receptors composed of the α1β2γ2 and α4β3δ subunits. Cells were bathed in an extracellular solution containing: 140 mM NaCl, 4 mM KCl, 2 mM CaCl2), 1 mM MgCl2, 10 mM HEPES, 5 mM glucose and 0.1% DMSO. Solution was maintained at pH 7.4 with NaOH and 300 mOsm/L. Chips with multi-hole (4×) medium resistance (2-3M) are used for the recombinant cell line experiments. Once harvested, cells are stored in extracellular solution set to 10° C. in the cell hotel with a minimum shaking speed of 200 rpm before addition to the chip at the beginning of each experiment. Whole cell patch clamp recordings were made using an intracellular solution containing: 90 mM KCl, 50 mM KF, 1.5 mM MgCl2, 11.1 mM EGTA and 10 mM HEPES, 2 mM NaATP, maintained at pH 7.2 with KOH. Currents are leak corrected (using P/2 leak correction protocol) and sampled at 5 kHz. Cells were clamped at −120 mV. After establishing a stable baseline, a submaximal concentration of GABA (3-5 μM for cells expressing α1β2γ2 and 10 μM for cells expressing […]) was applied at a rate of 10 μl/second, immediately followed by application of GABA+compound (10 μl/second) at a single concentration of compound per cell. Compounds were tested at six concentrations (0.029, 0.12, 0.47, 1.88, 7.5, and 30 μM) in n=8-12 cells per concentration. Compound effect was determined by dividing peak current amplitude after GABA+compound by peak current amplitude after GABA alone. EC50 and Emax values were determined from average values for each concentration.

Compared with `CCC[C@@]1(O)CC[C@H]2[C@H](CC[C@@H]3[C@@H]2CC[C@]2(C)[C@@H]([C@@H](C)Cn4nnc(C)n4)[C@@H](O)C[C@@H]32)C1` [Example 365, (3R,5R,8R,9R,10S,13S,14S,16S,17R)-13-methyl-17-((R)-1-(5-methyl-2H-tetrazol-2-yl)propan-2-yl)-3-propylhexadecahydro-1H-cyclopenta[a]phenanthrene-3,16-diol], `COC[C@@]1(O)CC[C@H]2[C@H](CC[C@@H]3[C@@H]2CC[C@]2(C)[C@@H]([C@@H](C)Cc4ccc(C(F)(F)F)nc4)CC[C@@H]32)C1` [Example 420] is lower in EC50: 0.2 to 1 µM for the first, less than 0.2 µM for the second. The second is the more potent here.

biological target: human GABAA receptors composed of the α1β2γ2 subunits (Homo sapiens (Human), UniProt P14867+P18507+P47870); assay: α1β2γ2 SyncroPatch automated patch clamp assay; type: cell-based; details: HEK cells, potentiation of submaximal GABA current, clamped at −120 mV
Sequence (P14867 28-456 limits assumed): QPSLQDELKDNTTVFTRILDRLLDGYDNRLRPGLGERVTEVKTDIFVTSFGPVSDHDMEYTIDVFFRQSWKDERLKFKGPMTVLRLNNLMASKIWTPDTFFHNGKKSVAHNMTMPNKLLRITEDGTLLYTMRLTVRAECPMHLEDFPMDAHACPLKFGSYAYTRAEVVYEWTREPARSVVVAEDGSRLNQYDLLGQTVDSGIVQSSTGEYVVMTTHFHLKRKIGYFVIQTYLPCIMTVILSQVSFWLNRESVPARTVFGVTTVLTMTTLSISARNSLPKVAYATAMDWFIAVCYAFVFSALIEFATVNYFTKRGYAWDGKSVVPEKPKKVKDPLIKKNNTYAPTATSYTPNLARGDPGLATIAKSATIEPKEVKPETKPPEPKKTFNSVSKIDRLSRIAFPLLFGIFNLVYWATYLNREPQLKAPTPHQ
Sequence (P47870 25-512 limits assumed): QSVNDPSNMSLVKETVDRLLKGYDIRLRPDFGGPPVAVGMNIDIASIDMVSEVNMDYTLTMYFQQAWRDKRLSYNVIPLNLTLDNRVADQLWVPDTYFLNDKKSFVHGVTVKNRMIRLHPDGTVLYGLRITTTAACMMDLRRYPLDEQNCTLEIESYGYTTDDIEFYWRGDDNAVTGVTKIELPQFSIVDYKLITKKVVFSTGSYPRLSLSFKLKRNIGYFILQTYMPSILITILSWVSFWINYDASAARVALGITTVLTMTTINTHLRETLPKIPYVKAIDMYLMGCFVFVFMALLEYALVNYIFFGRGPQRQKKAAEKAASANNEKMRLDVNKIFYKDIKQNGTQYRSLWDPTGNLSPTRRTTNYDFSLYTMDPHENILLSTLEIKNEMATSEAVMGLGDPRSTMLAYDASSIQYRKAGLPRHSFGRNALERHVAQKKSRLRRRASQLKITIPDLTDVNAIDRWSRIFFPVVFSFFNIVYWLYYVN
Sequence (P18507 40-475 limits assumed): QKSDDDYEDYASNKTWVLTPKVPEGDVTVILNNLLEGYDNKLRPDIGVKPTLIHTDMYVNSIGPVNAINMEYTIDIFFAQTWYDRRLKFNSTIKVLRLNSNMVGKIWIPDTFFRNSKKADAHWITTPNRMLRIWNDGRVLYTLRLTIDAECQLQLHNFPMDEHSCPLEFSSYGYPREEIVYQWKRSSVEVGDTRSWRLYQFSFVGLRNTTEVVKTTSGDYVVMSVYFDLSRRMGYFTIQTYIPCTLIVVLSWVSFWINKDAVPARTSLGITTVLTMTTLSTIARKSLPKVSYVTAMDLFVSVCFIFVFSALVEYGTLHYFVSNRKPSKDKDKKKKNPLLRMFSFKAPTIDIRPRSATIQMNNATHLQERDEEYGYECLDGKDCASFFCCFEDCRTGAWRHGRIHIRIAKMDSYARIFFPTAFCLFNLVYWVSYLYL
Procedure: as §1

First: CCC[C@@]1(O)CC[C@H]2[C@H](CC[C@@H]3[C@@H]2CC[C@]2(C)[C@@H]([C@@H](C)Cn4nnc(C)n4)[C@@H](O)C[C@@H]32)C1 [Example 365, (3R,5R,8R,9R,10S,13S,14S,16S,17R)-13-methyl-17-((R)-1-(5-methyl-2H-tetrazol-2-yl)propan-2-yl)-3-propylhexadecahydro-1H-cyclopenta[a]phenanthrene-3,16-diol]
Second: COC[C@@]1(O)CC[C@H]2[C@H](CC[C@@H]3[C@@H]2CC[C@]2(C)[C@@H]([C@@H](C)Cc4ccc(C(F)(F)F)nc4)CC[C@@H]32)C1 [Example 420]
The EC50 of the first is higher: no less than 1 µM for the first, less than 0.2 µM for the second.
